Source: ChEMBL document CHEMBL1201862, “PubChem BioAssay data set” (2004)
Calls of active or inactive are those of the source.

What was measured:
[1] = molecular target: Caspase-7 (Homo sapiens, UniProt P55210); assay: caspase-7 enzyme inhibition, selectivity check – biochemical, DEVD-R110 fluorescence, cherry-pick, selectivity assay for caspase-6 inhibitor project, dose response (AID 743295); assay type: functional
[2] = molecular target: Caspase-6 (Homo sapiens, UniProt P55212); assay: inhibition of CASP6 peptide cleavage – biochemical, VEID-R110 fluorescence, cherry-pick, dose response (AID 720632)
[3] = molecular target: Potassium channel subfamily K member 3 (Homo sapiens, UniProt O14649); assay: inhibition of human KCNK3 channel flux – CHO cells, FluxOR thallium flux, SAR follow-up (AID 652212); assay type: functional
[4] = blockade of melanocortin 4 receptor signaling – cell-based, plate reader, cherry pick, counter-screen for LGR2 antagonist project, dose response (AID 743444); assay type: functional;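 further: transfected HEK 293 cells stimulated with alpha-MSH peptide; potency of inhibitors of the alpha-MSH evoked signal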
[5] = inhibition of bursicon-driven LGR2 cAMP signaling – cell-based, HEK293, CRE-luciferase reporter, cherry pick, dose response (AID 743342); assay type: functional
[6] = system: A-375; assay: MITF: Counter assay: A375 proliferation Measured in Cell-Based System Using Plate Reader - 2084-03_Inhibitor_Dose_DryPowder_Activity. [Related pubchem assays (depositor defined):AID488944]; assay type: functional; conditions: Homo sapiens
[7] = cells; assay type: functional, cell-based
[8] = molecular target: Transthyretin (Homo sapiens, UniProt P02766); assay: Luminescence-based cell-based high throughput dose response assay to identify activators of Transthyretin (TTR) transcription.; assay type: functional
[9] = viability loss in HepG2 liver cells – cell-based, ATP luminescence, cherry-pick, set 6, cytotoxicity control, dose response (AID 1053125); assay type: functional
[10] = cells; conditions: HEK293
[11] = cells; conditions: A549
[12] = molecular target: T1, DNA repair protein RAD52 homolog (Homo sapiens, UniProt P43351); assay type: functional, biochemical
T1 sequence (P43351 whole entry): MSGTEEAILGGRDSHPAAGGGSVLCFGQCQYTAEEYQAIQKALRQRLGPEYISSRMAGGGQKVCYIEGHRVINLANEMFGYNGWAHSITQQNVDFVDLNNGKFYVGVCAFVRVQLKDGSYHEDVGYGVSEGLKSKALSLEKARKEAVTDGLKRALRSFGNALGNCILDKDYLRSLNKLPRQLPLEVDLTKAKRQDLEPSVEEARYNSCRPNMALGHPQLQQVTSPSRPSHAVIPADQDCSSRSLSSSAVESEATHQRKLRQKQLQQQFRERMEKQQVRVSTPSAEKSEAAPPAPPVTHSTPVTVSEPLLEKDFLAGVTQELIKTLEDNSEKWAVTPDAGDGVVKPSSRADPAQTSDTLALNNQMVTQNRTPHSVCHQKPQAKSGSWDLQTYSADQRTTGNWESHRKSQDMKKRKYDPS

[13] = Trypanosoma cruzi growth suppression in host cells – NIH3T3 host cells, beta-gal luminescence, confirmation (AID 2044); assay type: functional, cell-based;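 further: intracellular parasites grown in NIH/3T3 mouse fibroblasts as host cells; luminescent beta-galactosidase reporter signal from transgenic T. cruzi replicating inside host cells; inhibitors lower the luminescence signal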
[14] = NIH3T3 cell viability loss – ATP luminescence, mouse fibroblasts, counter-screen, dose response (AID 2010); assay type: functional, cell-based;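 further: cells exposed to compound for about 90 hours before reading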
[15] = cells
[16] = molecular target: T2, Microphthalmia-associated transcription factor (Homo sapiens, UniProt O75030); assay: reducers of TRPM1 reporter luminescence, concentration series – cell-based, SK-MEL-5, cherry-picked, set 3, MITF inhibitor project, dose response (AID 493073); assay type: functional;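 further: SK-MEL-5 melanoma cells with luciferase driven by the MITF target TRPM1 promoter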
T2 sequence (O75030 whole entry): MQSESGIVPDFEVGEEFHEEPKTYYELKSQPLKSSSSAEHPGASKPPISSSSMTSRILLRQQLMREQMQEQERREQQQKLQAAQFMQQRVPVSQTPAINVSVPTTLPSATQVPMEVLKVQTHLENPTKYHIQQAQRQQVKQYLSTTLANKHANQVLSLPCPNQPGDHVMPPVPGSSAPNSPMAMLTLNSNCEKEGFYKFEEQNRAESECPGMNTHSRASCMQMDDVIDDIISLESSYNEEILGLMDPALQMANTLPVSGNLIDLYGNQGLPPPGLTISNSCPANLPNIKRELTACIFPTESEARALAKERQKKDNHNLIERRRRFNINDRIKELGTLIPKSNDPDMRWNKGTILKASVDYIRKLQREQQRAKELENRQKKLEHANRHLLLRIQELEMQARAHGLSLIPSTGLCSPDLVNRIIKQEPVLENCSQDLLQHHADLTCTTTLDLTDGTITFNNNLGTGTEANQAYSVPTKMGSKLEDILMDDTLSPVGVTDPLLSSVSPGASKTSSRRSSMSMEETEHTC

[17] = cells; assay type: functional, cell-based; remark: listed apart in the source
[18] = cells; remark: listed apart in the source
[19] = molecular target: Major prion protein (Homo sapiens, UniProt P04156); assay type: functional, cell-based
[20] = viability loss in HEK293 kidney cells – cell-based, cherry-picks, set 5, cytotoxicity control, dose response (AID 1053117); assay type: functional
[21] = viability loss in HepG2 hepatoma cells – cell-based, cherry-picks, set 5, cytotoxicity control, dose response (AID 1053118); assay type: functional
[22] = general mammalian cell viability loss – inhibitor set, cherry-pick, set 2, cytotoxicity control for miR-122 modulator project, dose response (AID 720697); assay type: functional, cell-based
[23] = general mammalian cell viability loss – activator set, cherry-pick, cytotoxicity control for miR-122 modulator project, dose response (AID 720690); assay type: functional, cell-based;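 further: HEK293T human cells scored for general mammalian cytotoxicity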
[24] = system: INS1; assay: INS-1E survival protection against cytokine death – cell-based, luminescence, retest, dose response (AID 449756); assay type: functional; conditions: Rattus norvegicus;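 further: cell death triggered by IL-1 beta plus TNF-alpha plus IFN-gamma mixture; protective hits raise ATP signal compared with cytokine alone wells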
[25] = activation of miR-122 Renilla sensor silencing – cell-based, Huh7 psiCHECK-miR122, Renilla luciferase, cherry-picked, dose response (AID 651956); assay type: functional;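 further: huh7 hepatoma cells stably carrying a psiCHECK-2 miR-122 sensor plasmid; renilla luciferase signal reporting endogenous miR-122 activity after 48 h compound exposure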
[26] = molecular target: Protein disulfide-isomerase (Homo sapiens, UniProt P07237); assay: inhibition of PDI-mediated insulin reduction – biochemical, turbidity, dry powder samples, set 2, confirmation (AID 652146)
[27] = molecular target: Protein disulfide-isomerase A6 (Homo sapiens, UniProt Q15084); assay: Secondary Assay for Selectivity of PDI Inhibitors (against ERp5) Measured in Biochemical System Using Plate Reader - 2137-04_Inhibitor_Dose_DryPowder_Activity_Set3.
[28] = loss of viability in HeLa cells – cell-based, ATP luminescence, dry powder, cytotoxicity control, dose response (AID 652117); assay type: functional
[29] = OVCAR-3 cell viability loss – plate reader, dry powder samples, PAX8 inhibitor project, dose response (AID 743044); assay type: functional, cell-based
[30] = molecular target: Paired box protein Pax-8 (Homo sapiens, UniProt Q06710); assay: PAX8 transcriptional activity inhibition in RMG-I – RMG-I cells, luciferase, cherry-pick, dose response (AID 687027); assay type: functional, cell-based;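 further: luciferase reporter driven by Pax8 target thyroperoxidase promoter measured by SteadyGlo luminescence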
[31] = OVCAR8 cell viability loss – plate reader, dry powder samples, PAX8 project, dose response (AID 743197); assay type: functional, cell-based; conditions: OVCAR-8
[32] = IGROV1 cell killing – plate reader, dry powder samples, PAX8 inhibitor project, dose response (AID 743043); assay type: functional, cell-based; conditions: IGROV-1
[33] = molecular target: 1-phosphatidylinositol 4,5-bisphosphate phosphodiesterase beta-3 (Homo sapiens, UniProt Q01970); assay: Fluorescence-based biochemical high throughput dose response assay to identify inhibitors of phospholipase C isozymes (PLC-B3).
[34] = molecular target: 1-phosphatidylinositol 4,5-bisphosphate phosphodiesterase gamma-1 (Homo sapiens, UniProt P19174); assay: Counterscreen for inhibitors of phospholipase C isozymes (PLC-B3): Fluorescence-based biochemical high throughput dose response assay to identify inhibitors of phospholipase C isozymes (PLC-gamma1).
[35] = molecular target: Protein Wnt-3a (Mus musculus, UniProt P27467); assay: SAR analysis of small molecule antagonists of Gli-SUFU in a Wnt3a luminescent reporter assay.; assay type: functional
[36] = NIH-3T3 fibroblast cytotoxicity, dose response, cytotoxicity control, cell-based, fluorescence, Alamar Blue, secondary assay (AID 2327); assay type: functional;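 further: NIH-3T3 mouse fibroblasts cultured with fluconazole at 8 µg/mL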
[37] = fluconazole-exposed Candida albicans growth modulators – fluorescence, retest, confirmation (AID 2467); assay type: functional, cell-based
[38] = molecular target: COUP transcription factor 2 (Homo sapiens, UniProt P24468); assay: Luminescence-based cell-based high throughput dose response assay to identify inhibitors of COUP-TFII (NR2F2).; assay type: functional;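 further: HEK293 cells transiently cotransfected with COUP-TFII expression vector and reporter; luciferase reporter luminescence driven by COUP-TFII from the pX2-168 reporter plasmid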
[39] = HIV-1 AD8 envelope cell-cell fusion blockers – cherry-pick, dose response (AID 652062); assay type: functional, cell-based;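 further: luciferase signal from cell-cell fusion driven by HIV-1 clade B AD8 Env; potency is for inhibitors of fusion seen as a drop in luminescence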
[40] = off-target signal loss in HeLa-CEM21 co-culture – HeLa F-luc CTL cells, cherry-picked, counter-screen for HIV-1 Env fusion inhibitor project, dose response (AID 652040); assay type: functional, cell-based;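 further: potency for signal decrease marking cytotoxic or nonspecific inhibition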
[41] = viability loss in MITF-independent A375 cells – cell-based, CellTiter-Glo luminescence, dry powder, set 2, counter-screen for MITF inhibitor project, dose response (AID 624489); assay type: functional; conditions: A-375;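 further: actives are compounds lowering A375 viability meaning general cytotoxicity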
[42] = cytotoxicity in MITF-independent A375 cells – cell-based, CellTiter-Glo luminescence, dry powder, set 4, counter-screen for MITF inhibitor project, dose response (AID 624364); assay type: functional; conditions: A-375;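 further: A375 melanoma cells are MITF independent so this is a counter screen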
[43] = molecular target: Tyrosyl-DNA phosphodiesterase 2 (Homo sapiens, UniProt O95551); assay: potency against TDP2 phosphodiesterase activity – biochemical, epi absorbance, IC50, dose response (AID 743297)

Cc1n[nH]c([S+]([O-])CC(=O)O)c1[N+](=O)[O-] (stereo not given)
AC50 [1]: 56.5 µM (active) | AC50 [2]: 4.04 µM (active)

Cc1cccc(S(=O)(=O)Nc2cccc(NC(=O)c3ccccc3)c2)c1
IC50 [3]: 1.45 µM (active)

C[C@H](CO)N1C[C@H](C)[C@H](CN(C)C(=O)Nc2ccc(F)cc2)OCCCC[C@H](C)Oc2ccc(NC(=O)C3CCCCC3)cc2C1=O
AC50 [4]: 65.8 µM (active) | AC50 [5]: 1.82 µM (active)

OCCNc1c2ccccc2nc2ccccc12
AC50 [6]: 28.6 µM (active) | EC50 [7]: > 350 µM (not active) | EC50 [8]: > 167 µM (inactive) | AC50 [9]: 17 µM (active) | AC50 [10]: 14.2 µM (active) | AC50 [11]: 11.6 µM (active) | AC50 [12]: 9.09 µM (active) | EC50 [13]: 993 nM (active) | EC50 [14]: 7.92 µM (active) | AC50 [15]: 11.7 µM (active) | AC50 [16]: 7.28 µM (active) | EC50 [17]: 23 µM (active)

CCOC(=O)CNC(=O)CSc1nc2c(C)cccc2cc1CC
IC50 [18]: > 138 µM (inactive) | IC50 [19]: 2.76 µM (active)

N#Cc1ccc(-c2ccc3c(c2)[C@H]2[C@H](CCN2S(=O)(=O)c2cccc(F)c2)[C@@H](CO)N3)cc1
AC50 [20]: 32.8 µM (active) | AC50 [21]: 38.1 µM (active)

Oc1c(Cl)cc(Cl)cc1/C=N/Nc1ncc(Br)cn1
AC50 [22]: 5.81 µM (active) | AC50 [23]: 22.9 µM (active) | AC50 [16]: 7.84 µM (active) | AC50 [24]: 388 nM (active) | AC50 [25]: 54.3 µM (active)

CC(C)OC(=O)C1(CCOc2ccccc2)CCN(Cc2ccc(O)c(Cl)c2)CC1
AC50 [26]: 1 µM (active) | AC50 [27]: 30 µM (inactive) | AC50 [28]: 47.9 µM (active)

Cc1ccc(-c2ccc([C@H]3[C@H](CO)N4CCCCN(S(=O)(=O)c5cccc(C)c5)C[C@@H]34)cc2)cc1
AC50 [29]: 31.7 µM (active) | AC50 [30]: 8.11 µM (active) | AC50 [31]: 46 µM (active) | AC50 [32]: 55.4 µM (active)

O=C(CSCc1ccccc1)Nc1cccc(F)c1
IC50 [33]: > 122 µM (inactive) | IC50 [34]: > 122 µM (inactive)

O=C(Nc1cc(N2CCCCC2)ncn1)c1ccc(C(F)(F)F)cc1
IC50 [35]: > 21.8 µM (inactive)

Clc1ccc(OCCN2CCN(c3ncnc4sccc34)CC2)cc1
EC50 [36]: > 150 µM (inactive) | EC50 [37]: 44 nM (active) | IC50 [38]: 1.13 µM (active) | AC50 [39]: < 260 nM (active) | AC50 [40]: > 70 µM (inactive) | AC50 [24]: 503 nM (active)

O=C1C(NS(=O)(=O)c2ccc(Br)cc2)=C(N2CCSCC2)C(=O)c2ccccc21
AC50 [41]: > 70 µM (inactive) | AC50 [42]: > 70 µM (inactive)

CC1=NN(c2ccccc2)C(=O)/C1=C\c1ccc(Br)s1
IC50 [43]: > 128 µM (inactive)
